{"source": "ChEMBL document CHEMBL5380814", "about": "“Targeting Receptor-Interacting Protein Kinase 1 by Novel Benzothiazole Derivatives: Treatment of Acute Lung Injury through the Necroptosis Pathway” (J Med Chem, 2023)", "key": {"HT-29 [1]": {"tested_on": "HT-29", "experiment": "(§1) Anti-necroptotic activity in human HT-29 cells assessed as inhibition of human TNFalpha/Smac mimetic/Z-VAD-FMK induced necroptosis preincubated with compound for 16 to 24 hrs followed by TSZ stimulation for 12 hrs measured by cell-titre glo luminescent cell viability assay", "type": "functional, cell-based"}, "HT-29 [2]": {"tested_on": "HT-29", "experiment": "Cytotoxicity against human HT-29 cells incubated at 100 uM for 16 to 24 hrs measured by cell-titre glo luminescent cell viability assay", "type": "functional, cell-based", "conditions": "time 16-24 hrs"}, "HT-29 [3]": {"tested_on": "HT-29", "experiment": "as §1, with “protection against” for “inhibition of”, “compound at 50 nM” for “compound”, “assay relative to control” for “assay”", "type": "functional", "conditions": "time 28-36 hrs"}, "HT-29 [4]": {"tested_on": "HT-29", "experiment": "Anti-necroptotic activity in human HT-29 cells assessed as protection against human TNFalpha/cycloheximide induced necroptosis preincubated with compound upto 10 uM for 16 to 24 hrs followed by TC stimulation for 24 hrs measured by cell-titre glo luminescent cell viability assay", "type": "functional, cell-based", "conditions": "time 40-48 hrs"}, "[5]": {"target": "T1, Receptor-interacting serine/threonine-protein kinase 1 (Homo sapiens) (UniProt Q13546)", "T1 sequence (whole entry)": "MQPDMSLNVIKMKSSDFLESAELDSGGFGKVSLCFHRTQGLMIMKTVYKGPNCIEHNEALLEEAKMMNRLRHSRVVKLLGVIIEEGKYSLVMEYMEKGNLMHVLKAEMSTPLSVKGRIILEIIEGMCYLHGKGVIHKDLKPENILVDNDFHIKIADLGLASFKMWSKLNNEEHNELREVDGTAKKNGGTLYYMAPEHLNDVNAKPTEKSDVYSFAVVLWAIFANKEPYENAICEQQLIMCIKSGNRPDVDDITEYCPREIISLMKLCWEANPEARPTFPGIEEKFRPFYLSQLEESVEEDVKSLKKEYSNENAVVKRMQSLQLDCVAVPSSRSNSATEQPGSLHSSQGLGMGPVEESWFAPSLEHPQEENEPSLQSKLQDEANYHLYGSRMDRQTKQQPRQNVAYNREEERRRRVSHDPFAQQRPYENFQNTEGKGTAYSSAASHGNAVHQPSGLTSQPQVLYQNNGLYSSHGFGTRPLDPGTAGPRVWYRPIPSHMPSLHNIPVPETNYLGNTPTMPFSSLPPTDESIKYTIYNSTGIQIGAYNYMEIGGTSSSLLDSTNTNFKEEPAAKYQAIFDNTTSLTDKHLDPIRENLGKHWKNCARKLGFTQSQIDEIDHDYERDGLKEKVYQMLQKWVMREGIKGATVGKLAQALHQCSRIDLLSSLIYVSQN", "experiment": "Inhibition of RIPK1 phosphorylation in TSZ-induced human HT-29 cells assessed as blocking of TSZ-induced necrosome formation at 0.5 uM pretreated with compound for 6 hrs followed by TSZ stimulation for 6 hrs measured by Western analysis", "type": "cell-based", "conditions": "time 12.0 hrs"}, "[6]": {"target": "Receptor-interacting serine/threonine-protein kinase 3 (Homo sapiens, UniProt Q9Y572)", "sequence (Q9Y572 whole entry, looked up)": "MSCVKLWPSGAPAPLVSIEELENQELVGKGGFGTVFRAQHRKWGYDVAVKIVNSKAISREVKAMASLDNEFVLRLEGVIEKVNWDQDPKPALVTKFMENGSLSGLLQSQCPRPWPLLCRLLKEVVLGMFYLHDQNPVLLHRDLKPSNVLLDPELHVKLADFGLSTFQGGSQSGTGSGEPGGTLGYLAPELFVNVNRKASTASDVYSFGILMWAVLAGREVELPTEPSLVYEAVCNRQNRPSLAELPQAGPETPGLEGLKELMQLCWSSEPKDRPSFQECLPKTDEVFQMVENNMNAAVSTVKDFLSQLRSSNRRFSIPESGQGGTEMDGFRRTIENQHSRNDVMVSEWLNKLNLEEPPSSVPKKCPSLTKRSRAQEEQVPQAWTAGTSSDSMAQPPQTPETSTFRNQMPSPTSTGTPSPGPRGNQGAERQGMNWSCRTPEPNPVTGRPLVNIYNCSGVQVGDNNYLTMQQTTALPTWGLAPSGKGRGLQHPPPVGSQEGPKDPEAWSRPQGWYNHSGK", "experiment": "Inhibition of RIPK3 phosphorylation in TSZ-induced human HT-29 cells assessed as blocking of TSZ-induced necrosome formation at 1 uM pretreated with compound for 2 to 6 hrs followed by TSZ stimulation for 6 hrs measured by Western analysis", "type": "cell-based", "conditions": "time 8-12 hrs"}, "[7]": {"target": "T1, Receptor-interacting serine/threonine-protein kinase 1 (Homo sapiens)", "experiment": "Inhibition of RIPK1 phosphorylation in TSZ-induced human HT-29 cells assessed as blocking of TSZ-induced necrosome formation at 1 uM pretreated with compound for 2 to 6 hrs followed by TSZ stimulation for 6 hrs measured by Western analysis", "type": "cell-based", "conditions": "time 8-12 hrs"}, "Mus musculus [8]": {"tested_on": "Mus musculus", "experiment": "In vivo anti-necrotptic activity in mTNFalpha induced C57BL/6J SIRS mouse model assessed as protection from body temperature loss pretreated at 10 mg/kg, po for 1 hr followed by mTNFalpha/Z-VAD-FMK administration measured after 45 mins by electric thermometer", "type": "functional, organism-based", "conditions": "time 105.0 min"}, "Mus musculus [9]": {"tested_on": "Mus musculus", "experiment": "In vivo anti-necrotptic activity in mTNFalpha induced C57BL/6J SIRS mouse model assessed as protection from body temperature loss pretreated at 20 mg/kg, po for 1 hr followed by mTNFalpha/Z-VAD-FMK administration measured after 45 mins by electric thermometer", "type": "functional, organism-based", "conditions": "time 105.0 min"}, "Mus musculus [10]": {"tested_on": "Mus musculus", "experiment": "In vivo anti-necrotptic activity in mTNFalpha induced C57BL/6J SIRS mouse model assessed as survival rate pretreated at 20 mg/kg, po for 1 hr followed by mTNFalpha/Z-VAD-FMK administration measured after 40 mins relative to control", "type": "functional", "conditions": "time 100 min, 1.667 h"}, "Mus musculus [11]": {"tested_on": "Mus musculus", "experiment": "In vivo anti-inflammatory activity in NNK induced induced C57BL/6J ALI mouse model assessed as less congestion in lung pretreated at 25 to 100 mg/kg, ip for 1 hr followed by NNK administration by HE staining analysis", "type": "functional, organism-based", "conditions": "dose 25-100 mg/kg"}, "Mus musculus [12]": {"tested_on": "Mus musculus", "experiment": "In vivo anti-inflammatory activity in NNK induced induced C57BL/6J ALI mouse model assessed as mild alveolar thickening in lung pretreated at 25 to 100 mg/kg, ip for 1 hr followed by NNK administration by HE staining analysis", "type": "functional, organism-based", "conditions": "dose 25-100 mg/kg"}, "Mus musculus [13]": {"tested_on": "Mus musculus", "experiment": "In vivo anti-inflammatory activity in NNK induced induced C57BL/6J ALI mouse model assessed as intact alveolar structure in lung pretreated at 25 to 100 mg/kg, ip for 1 hr followed by NNK administration by HE staining analysis", "type": "functional, organism-based", "conditions": "dose 25-100 mg/kg"}, "Mus musculus [14]": {"tested_on": "Mus musculus", "experiment": "In vivo anti-inflammatory activity in NNK induced induced C57BL/6J ALI mouse model assessed as decrease in wet lung weight pretreated at 25 to 100 mg/kg, ip for 1 hr followed by NNK administration relative to disease model", "type": "functional, organism-based", "conditions": "dose 25-100 mg/kg"}, "Mus musculus [15]": {"tested_on": "Mus musculus", "experiment": "In vivo anti-inflammatory activity in NNK induced induced C57BL/6J ALI mouse model assessed as lung injury score pretreated at 25 mg/kg, ip for 1 hr followed by NNK administration relative to disease model (reference value: 5.7 +/- 0.5)", "type": "functional"}, "Mus musculus [16]": {"tested_on": "Mus musculus", "experiment": "In vivo anti-inflammatory activity in NNK induced induced C57BL/6J ALI mouse model assessed as lung injury score pretreated at 100 mg/kg, ip for 1 hr followed by NNK administration relative to disease model (reference value: 5.7 +/- 0.5)", "type": "functional"}, "Mus musculus [17]": {"tested_on": "Mus musculus", "experiment": "In vivo anti-inflammatory activity in NNK induced induced C57BL/6J ALI mouse model assessed as decrease in bronchoalveolar lavage fluid (BALF) total protein pretreated intraperitoneally for 1 hr followed by NNK administration", "type": "functional, organism-based", "conditions": "dose 25-100 mg/kg, route ip"}, "Mus musculus [18]": {"tested_on": "Mus musculus", "experiment": "In vivo anti-inflammatory activity in NNK induced induced C57BL/6J ALI mouse model assessed as decrease in bronchoalveolar lavage fluid (BALF) IL-6 level pretreated at 25 to 100 mg/kg, ip for 1 hr followed by NNK administration", "type": "functional, organism-based", "conditions": "dose 25-100 mg/kg"}, "Mus musculus [19]": {"tested_on": "Mus musculus", "experiment": "In vivo anti-inflammatory activity in NNK induced induced C57BL/6J ALI mouse model assessed as decrease in lung TNF-alpha mRNA level pretreated at 25 to 100 mg/kg, ip for 1 hr followed by NNK administration", "type": "functional, organism-based", "conditions": "dose 25-100 mg/kg"}, "Mus musculus [20]": {"tested_on": "Mus musculus", "experiment": "In vivo anti-inflammatory activity in NNK induced induced C57BL/6J ALI mouse model assessed as decrease in lung IL-6 mRNA level pretreated at 25 to 100 mg/kg, ip for 1 hr followed by NNK administration", "type": "functional, organism-based", "conditions": "dose 25-100 mg/kg"}, "Mus musculus [21]": {"tested_on": "Mus musculus", "experiment": "In vivo anti-necrotoptic activity in NNK induced induced C57BL/6J ALI mouse model assessed as reduction in RIPK1 phosphorylation pretreated at 25 to 100 mg/kg, ip for 1 hr followed by NNK administration", "type": "functional, organism-based", "conditions": "dose 25-100 mg/kg"}}, "note": "pEC50: −log10 of the molar value. Calls of active or inactive are those of the source. The rule behind the calls is not given here.", "data": [{"compound": "CCS(=O)(=O)NC1CCC(C(=O)Nc2nc3cc(F)c(Oc4ccc(F)c(NC(=O)Cc5cccc(C(F)(F)F)c5)c4)cc3s2)CC1", "note": "(stereo unspecified)", "values": [{"measurement": "pEC50", "setting": "HT-29 [1]", "result": 7.65}, {"measurement": "Activity", "setting": "HT-29 [2]", "result": "Active"}, {"measurement": "Activity", "setting": "HT-29 [3]", "result": 100, "unit": "%"}, {"measurement": "Activity", "setting": "HT-29 [4]", "result": "inactive"}, {"measurement": "inhibition", "setting": "[5]", "result": "Active"}, {"measurement": "inhibition", "setting": "[6]", "result": "Active"}, {"measurement": "inhibition", "setting": "[7]", "result": "Active"}, {"measurement": "Activity", "setting": "Mus musculus [8]", "result": "Active"}, {"measurement": "Activity", "setting": "Mus musculus [9]", "result": "Active"}, {"measurement": "Activity", "setting": "Mus musculus [10]", "result": 100, "unit": "%"}, {"measurement": "Activity", "setting": "Mus musculus [11]", "result": "Active"}, {"measurement": "Activity", "setting": "Mus musculus [12]", "result": "Active"}, {"measurement": "Activity", "setting": "Mus musculus [13]", "result": "Active"}, {"measurement": "Activity", "setting": "Mus musculus [14]", "result": "Active"}, {"measurement": "Activity", "setting": "Mus musculus [15]", "result": 4.3}, {"measurement": "Activity", "setting": "Mus musculus [16]", "result": 2.7}, {"measurement": "Activity", "setting": "Mus musculus [17]", "result": "Dose-Dependent Effect"}, {"measurement": "Activity", "setting": "Mus musculus [18]", "result": "Active"}, {"measurement": "Activity", "setting": "Mus musculus [19]", "result": "Active"}, {"measurement": "Activity", "setting": "Mus musculus [20]", "result": "Active"}, {"measurement": "Activity", "setting": "Mus musculus [21]", "result": "Active"}]}]}
